The source of these data is patent publication US11753397B2, “Cereblon binders for the degradation of ikaros” (C4 Therapeutics, Inc., priority 2018, dated 2023).

For this assay, the system named is NCIH929.1 cells. Nature of the assay: Cell viability assay (CellTiter-Glo 2.0, ATP quantification). Format: cell-based. Particulars: NCIH929.1 cell viability, CellTiter-Glo 2.0, 96 hr incubation, top concentration 1 μM. The method, then:
Example 59. Cell Viability Assay
RPMI 1640 medium, fetal bovine serum (FBS) and 2-mercaptoethanol were purchased from Gibco (Grand Island, N.Y., USA). CellTiter-Glo® 2.0 Assay was purchased from Promega (Madison, Wis., USA). NCIH929.1 cell line was purchased from ATCC (Manassas, Va., USA). Cell culture flasks and 384-well microplates were acquired from VWR (Radnor, Pa., USA).
NCIH929.1 cell viability was determined based on quantification of ATP using CellTiter-Glo® 2.0 luminescent Assay kit, which signals the presence of metabolically-active cells. Briefly, the test compound was added to 384-well plates at a top concentration of 1 μM with 10 points, half log titration in duplicates. NCIH929.1 cells were seeded into the 384-well plates in RPMI medium containing 10% FBS and 0.05 mM 2-mercaptoethanol at a cell density of 750 cells per well. Cells treated in the absence of the test compound were the negative control and cells treated in the absence of CellTiter-Glo® 2.0 were the positive control. At the same day of compound treatment, CellTiter-Glo® 2.0 was added to a plate with cells treated in the absence of the test compound to establish Cytostatic control value (CT0). Cells treated with the test compound were incubated at 37° C. with 5% CO2 for 96 hr. CellTiter-Glo reagent was then added to the cells and luminescence was acquired on EnVision™ Multilabel Reader (PerkinElmer, Santa Clara, Calif., USA).
In general terms: ATP-based viability assays read luminescence as a measure of living cells.
Turning to `CC(C)n1cc(CNc2cccc3c2C(=O)N(C2CCC(=O)NC2=O)C3=O)cn1` (stereo not shown) [Compound 152, 2-(2,6-dioxo-3-piperidyl)-4-[(1-isopropylpyrazol-4-yl)methylamino]isoindoline-1,3-dione], the GI50 was less than 100 nM.
In turn, `O=C1CCC(N2C(=O)c3cccc(NCc4cnn(C5CCN(C(=O)c6cccc(Cn7cccn7)c6)CC5)c4)c3C2=O)C(=O)N1` (stereo not shown) [Compound 119, 4-(((1-(1-(3-((1H-pyrazol-1-yl)methyl)benzoyl)piperidin-4-yl)-1H-pyrazol-4-yl)methyl)amino)-2-(2,6-dioxopiperidin-3-yl)isoindoline-1,3-dione] showed a GI50 of less than 100 nM.
Turning to `CN(C)CC(=O)N1CCC(n2cc(CNc3cccc4c3C(=O)N(C3CCC(=O)NC3=O)C4=O)cn2)CC1` (stereo not shown) [Compound 37, 4-(((1-(1-(dimethylglycyl)piperidin-4-yl)-1H-pyrazol-4-yl)methyl)amino)-2-(2,6-dioxopiperidin-3-yl)isoindoline-1,3-dione], the GI50 is less than 100 nM.
As for `CC(C)(C)OC(=O)N1C2CCC1CC(n1cc(CNc3cccc4c3C(=O)N(C3CCC(=O)NC3=O)C4=O)cn1)C2` (stereo not shown) [Compound 166, tert-Butyl 3-(4-(((2-(2,6-dioxopiperidin-3-yl)-1,3-dioxoisoindolin-4-yl)amino)methyl)-1H-pyrazol-1-yl)-8-azabicyclo[3.2.1]octane-8-carboxylate], the figure is less than 100 nM; as for `CCCC(=O)N1CCC(n2cc(CNc3cccc4c3C(=O)N(C3CCC(=O)NC3=O)C4=O)cn2)CC1` (stereo not shown) [Compound 35, 4-(((1-(1-butyrylpiperidin-4-yl)-1H-pyrazol-4-yl)methyl)amino)-2-(2,6-dioxopiperidin-3-yl)isoindoline-1,3-dione], less than 100 nM.
`CC(C)(C)OC(=O)N1CCC(n2cc(CNc3cccc4c3C(=O)N(C3CCC(=O)NC3=O)C4=O)cn2)CC1` (stereo not shown) [Compound 66, tert-butyl 4-(4-(((2-(2,6-dioxopiperidin-3-yl)-1,3-dioxoisoindolin-4-yl)amino)methyl)-1H-pyrazol-1-yl)piperidine-1-carboxylate] had a GI50 of less than 100 nM.
Molecule `Cc1cccc(-c2nc(CC(=O)N3CCC(n4cc(CNc5cccc6c5C(=O)N(C5CCC(=O)NC5=O)C6=O)cn4)CC3)c(C)o2)c1` (stereo not shown) [Compound 115, 2-(2,6-dioxopiperidin-3-yl)-4-(((1-(1-(2-(5-methyl-2-(m-tolyl)oxazol-4-yl)acetyl)piperidin-4-yl)-1H-pyrazol-4-yl)methyl)amino)isoindoline-1,3-dione] showed a GI50 of less than 100 nM.
As for `CC(C)(C)COC(=O)N1CCC(n2cc(CNc3cccc4c3C(=O)N(C3CCC(=O)NC3=O)C4=O)cn2)CC1` (stereo not shown) [Compound 149, neopentyl 4-(4-(((2-(2,6-dioxopiperidin-3-yl)-1,3-dioxoisoindolin-4-yl)amino)methyl)-1H-pyrazol-1-yl)piperidine-1-carboxylate], the figure is less than 1 nM; as for `CC1(C(=O)N2CCC(n3cc(CNc4cccc5c4C(=O)N(C4CCC(=O)NC4=O)C5=O)cn3)CC2)CC1(Cl)Cl` (stereo not shown) [Compound 87, 4-(((1-(1-(2,2-dichloro-1-methylcyclopropane-1-carbonyl)piperidin-4-yl)-1H-pyrazol-4-yl)methyl)amino)-2-(2,6-dioxopiperidin-3-yl)isoindoline-1,3-dione], less than 1 nM.
With `CC1(C(=O)N2CCC(c3ccccc3)(n3cc(CNc4cccc5c4C(=O)N(C4CCC(=O)NC4=O)C5=O)cn3)CC2)CCC1` (stereo not shown) [Compound 172, 2-(2,6-Dioxopiperidin-3-yl)-4-(((1-(1-(1-methylcyclobutane-1-carbonyl)-4-phenylpiperidin-4-yl)-1H-pyrazol-4-yl)methyl)amino)isoindoline-1,3-dione] the figure was less than 100 nM.
With `O=C1CCC(N2C(=O)c3cccc(NCc4cnn(C5CCN(C(=O)C67CC(F)(C6)C7)CC5)c4)c3C2=O)C(=O)N1` (stereo not shown) [Compound 78, 2-(2,6-dioxopiperidin-3-yl)-4-(((1-(1-(3-fluorobicyclo[1.1.1]pentane-1-carbonyl)piperidin-4-yl)-1H-pyrazol-4-yl)methyl)amino)isoindoline-1,3-dione] the figure was less than 100 nM; with `CO[C@H]1CC[C@H](C(=O)N2CCC(n3cc(CNc4cccc5c4C(=O)N(C4CCC(=O)NC4=O)C5=O)cn3)CC2)CC1` (stereo partly shown) [Compound 15, 2-(2,6-dioxopiperidin-3-yl)-4-(((1-(1-((1r,4r)-4-methoxycyclohexane-1-carbonyl)piperidin-4-yl)-1H-pyrazol-4-yl)methyl)amino)isoindoline-1,3-dione], less than 100 nM; with `CCn1cc(CNc2cccc3c2C(=O)N(C2CCC(=O)NC2=O)C3=O)cn1` (stereo not shown) [Compound 142, 2-(2,6-dioxopiperidin-3-yl)-4-(((1-ethyl-1H-pyrazol-4-yl)methyl)amino)isoindoline-1,3-dione], less than 100 nM.
As for `CC(Nc1cccc2c1C(=O)N(C1CCC(=O)NC1=O)C2=O)c1cnn(C2CCN(C(=O)OC(C)(C)C)CC2)c1` (stereo not shown) [Compound 174, tert-Butyl 4-(4-(1-((2-(2,6-dioxopiperidin-3-yl)-1,3-dioxoisoindolin-4-yl)amino)ethyl)-1H-pyrazol-1-yl)piperidine-1-carboxylate], the GI50 is less than 100 nM.
As to `CC(C)(C)OC(=O)N1CCC(C(=O)N2CCC(n3cc(CNc4cccc5c4C(=O)N(C4CCC(=O)NC4=O)C5=O)cn3)CC2)CC1` (stereo not shown) [Compound 121, tert-butyl 4-(4-(4-(((2-(2,6-dioxopiperidin-3-yl)-1,3-dioxoisoindolin-4-yl)amino)methyl)-1H-pyrazol-1-yl)piperidine-1-carbonyl)piperidine-1-carboxylate], the GI50 is less than 100 nM.
`Cc1cccc2c(CC(=O)N3CCC(n4cc(CNc5cccc6c5C(=O)N(C5CCC(=O)NC5=O)C6=O)cn4)CC3)noc12` (stereo not shown) [Compound 104, 2-(2,6-dioxopiperidin-3-yl)-4-(((1-(1-(2-(7-methylbenzo[d]isoxazol-3-yl)acetyl)piperidin-4-yl)-1H-pyrazol-4-yl)methyl)amino)isoindoline-1,3-dione] gave a GI50 of less than 1 nM.
`O=C1CCC(N2C(=O)c3cccc(NCc4cnn(C5CCN(C(=O)N6CCCCC6)CC5)c4)c3C2=O)C(=O)N1` (stereo not shown) [Compound 88, 2-(2,6-dioxopiperidin-3-yl)-4-(((1-(1-(piperidine-1-carbonyl)piperidin-4-yl)-1H-pyrazol-4-yl)methyl)amino)isoindoline-1,3-dione] displayed a GI50 of less than 100 nM.
Regarding `O=C1CCC(N2C(=O)c3cccc(NCc4cnn(C5CCN(C(=O)C6(c7ccccc7)COC6)CC5)c4)c3C2=O)C(=O)N1` (stereo not shown) [Compound 69, 2-(2,6-dioxopiperidin-3-yl)-4-(((1-(1-(3-phenyloxetane-3-carbonyl)piperidin-4-yl)-1H-pyrazol-4-yl)methyl)amino)isoindoline-1,3-dione], the GI50 was less than 100 nM.
Molecule `O=C1CCC(N2C(=O)c3cccc(NCc4cnn(C5CCN(C(=O)C6CCN(c7ccccn7)CC6)CC5)c4)c3C2=O)C(=O)N1` (stereo not shown) [Compound 100, 2-(2,6-dioxopiperidin-3-yl)-4-(((1-(1-(1-(pyridin-2-yl)piperidine-4-carbonyl)piperidin-4-yl)-1H-pyrazol-4-yl)methyl)amino)isoindoline-1,3-dione] returned a GI50 of less than 1 nM.
As for `O=C1CCC(N2C(=O)c3cccc(NCc4cnn(C5CCN(C6CCCC6)CC5)c4)c3C2=O)C(=O)N1` (stereo not shown) [Compound 130, 4-(((1-(1-cyclopentylpiperidin-4-yl)-1H-pyrazol-4-yl)methyl)amino)-2-(2,6-dioxopiperidin-3-yl)isoindoline-1,3-dione], the figure is less than 100 nM; as for `CC1(CN2CCC(n3cc(CNc4cccc5c4C(=O)N(C4CCC(=O)NC4=O)C5=O)cn3)CC2)CC1` (stereo not shown) [Compound 136, 2-(2,6-dioxopiperidin-3-yl)-4-(((1-(1-((1-methylcyclopropyl)methyl)piperidin-4-yl)-1H-pyrazol-4-yl)methyl)amino)isoindoline-1,3-dione], less than 1 nM; as for `C[C@H](O)C(=O)N1CCC(n2cc(CNc3cccc4c3C(=O)N(C3CCC(=O)NC3=O)C4=O)cn2)CC1` (stereo partly drawn) [Compound 53, 2-(2,6-dioxopiperidin-3-yl)-4-(((1-(1-((S)-2-hydroxypropanoyl)piperidin-4-yl)-1H-pyrazol-4-yl)methyl)amino)isoindoline-1,3-dione], less than 100 nM.
Take `O=C1CCC(N2C(=O)c3cccc(NCc4cnn(C5CCN(C(=O)c6cnco6)CC5)c4)c3C2=O)C(=O)N1` (stereo not shown) [Compound 7, 2-(2,6-dioxopiperidin-3-yl)-4-(((1-(1-(oxazole-5-carbnonyl)piperidin-4-yl)-1H-pyrazol-4-yl)methyl)amino)isoindoline-1,3-dione]: the GI50 was less than 100 nM.
`COCC(=O)N1CCC(n2cc(CNc3cccc4c3C(=O)N(C3CCC(=O)NC3=O)C4=O)cn2)CC1` (stereo not shown) [Compound 31, 2-(2,6-dioxopiperidin-3-yl)-4-(((1-(1-(2-methoxyacetyl)piperidin-4-yl)-1H-pyrazol-4-yl)methyl)amino)isoindoline-1,3-dione] displayed a GI50 of less than 100 nM.
For `Cc1ccc(OC(C)(C)C(=O)N2CCC(n3cc(CNc4cccc5c4C(=O)N(C4CCC(=O)NC4=O)C5=O)cn3)CC2)cc1C` (stereo not shown) [Compound 110, 4-(((1-(1-(2-(3,4-dimethylphenoxy)-2-methylpropanoyl)piperidin-4-yl)-1H-pyrazol-4-yl)methyl)amino)-2-(2,6-dioxopiperidin-3-yl)isoindoline-1,3-dione], the GI50 is less than 100 nM.

A word on the GI50: it is the concentration giving 50% growth inhibition. Read a high GI50 as less potent growth inhibition.
